Each compound was assayed against EGFR (L858R/T790M/C797S) kinase (Homo sapiens, UniProt P00533, C797S/L858R/T790M) (assay: Kinase activity assay against EGFR(L858R/T790M/C797S) kinase at ATP Km concentration (33P-ATP, filter-binding)). Details: 10 concentrations, 20 min preincubation, 2 h reaction at room temperature.
Format: biochemical
Procedure: The biological activity screening of the compounds will be determined repeatedly at 10 concentrations.
Each sample was prepared into a solution with a concentration of 10 mM. […]
a. Preparing basic buffer solution and quenching buffer solution for experimental kinase […]
b. Preparing compounds for experimental kinase
The test compound was dissolved in 100% dimethyl sulfoxide to a specific concentration. Integra Viaflo Assist was used to assist DMSO for (continuous) dilution.
Kinase was added to the newly prepared basic reaction buffer
Adding any desired cofactors to the substrate solution.
Acoustic technology (Echo 550; Nanoliter range) was used to feed the compounds in 100% of dimethyl sulfoxide into the kinase reaction mixture and incubated at room temperature for 20 minutes.
33P-ATP (specific activity 10 Ci/l) was added to the reaction mixture to start the reaction.
Incubated at room temperature for 2 hours
Radioactivity was detected by filter-binding method.
Kinase activity data was expressed as the percentage of remaining kinase activity in the test sample compared to the vehicle (dimethyl sulfoxide) reaction. Prism ([…] software) was used to obtain IC50 value and curve-fitting.

Sequence of EGFR (L858R/T790M/C797S) kinase (P00533 25-1210 T790M/C797S/L858R): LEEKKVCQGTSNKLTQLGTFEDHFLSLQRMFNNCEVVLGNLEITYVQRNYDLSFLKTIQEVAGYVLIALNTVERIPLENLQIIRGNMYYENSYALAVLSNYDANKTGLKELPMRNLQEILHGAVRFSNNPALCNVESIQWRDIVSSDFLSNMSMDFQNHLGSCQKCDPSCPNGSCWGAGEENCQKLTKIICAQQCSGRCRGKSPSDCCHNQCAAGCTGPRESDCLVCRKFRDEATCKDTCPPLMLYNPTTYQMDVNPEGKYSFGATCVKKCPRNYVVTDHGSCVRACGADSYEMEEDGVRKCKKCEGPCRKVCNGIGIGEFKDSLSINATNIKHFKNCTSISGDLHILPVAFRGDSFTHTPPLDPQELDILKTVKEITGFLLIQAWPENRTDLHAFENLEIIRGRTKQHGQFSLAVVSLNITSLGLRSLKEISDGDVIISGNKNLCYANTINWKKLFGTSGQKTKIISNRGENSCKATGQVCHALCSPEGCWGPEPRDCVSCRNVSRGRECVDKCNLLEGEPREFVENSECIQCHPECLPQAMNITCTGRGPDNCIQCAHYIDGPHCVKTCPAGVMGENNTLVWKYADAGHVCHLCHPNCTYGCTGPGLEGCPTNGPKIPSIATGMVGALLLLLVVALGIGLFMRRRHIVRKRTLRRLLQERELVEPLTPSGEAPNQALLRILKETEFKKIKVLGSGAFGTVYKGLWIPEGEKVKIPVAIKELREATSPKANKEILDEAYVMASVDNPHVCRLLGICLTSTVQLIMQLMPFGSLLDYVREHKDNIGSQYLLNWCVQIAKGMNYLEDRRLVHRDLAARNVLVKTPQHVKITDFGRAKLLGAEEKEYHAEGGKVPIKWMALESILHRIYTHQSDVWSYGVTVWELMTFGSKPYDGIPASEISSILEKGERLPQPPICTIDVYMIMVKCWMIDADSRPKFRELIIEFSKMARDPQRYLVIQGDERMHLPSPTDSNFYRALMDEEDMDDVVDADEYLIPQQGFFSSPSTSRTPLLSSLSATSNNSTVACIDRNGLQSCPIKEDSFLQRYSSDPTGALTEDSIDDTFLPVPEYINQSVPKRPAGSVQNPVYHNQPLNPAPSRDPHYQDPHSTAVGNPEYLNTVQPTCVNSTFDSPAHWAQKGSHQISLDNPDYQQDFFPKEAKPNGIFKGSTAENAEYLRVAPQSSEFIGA

SMILES	IC50
CCc1cc(Nc2nc(Nc3ccc4nccnc4c3P(C)(C)=O)c3cccnc3n2)c(OC)cc1N1C[C@H]2CN(C)C[C@H]2C1 [Compound C28]	803 nM
[2H]C(F)(F)Oc1cc(N2CC3CC(C2)N3C)ccc1Nc1ncc(Cl)c(Nc2ccccc2P(C)(C)=O)n1 [Compound C3]	130 nM
[2H]C(F)(F)Oc1cc(N2C[C@H]3CNC[C@H]3C2)ccc1Nc1ncc(Cl)c(Nc2ccccc2P(C)(C)=O)n1 [Compound C4]	107 nM
[2H]C(F)(F)Oc1cc(N2CC3CCCNC3C2)ccc1Nc1ncc(Cl)c(Nc2ccccc2P(C)(C)=O)n1 (centres unmarked) [Compound C6]	178 nM
COc1cc2c(cc1Nc1ncc(Cl)c(Nc3ccccc3P(C)(C)=O)n1)CCCN2CC(=O)N1CCN(C)CC1 [Compound C25]	803 nM
[2H]C(F)(F)Oc1cc(-n2cc3c(n2)CN(C)C3)c(C)cc1Nc1ncc(Cl)c(Nc2ccccc2P(C)(C)=O)n1 [Compound C9]	181 nM
[2H]C(F)(F)Oc1cc(-n2ncc3c2CN(C)C3)c(C)cc1Nc1ncc(Cl)c(Nc2ccccc2P(C)(C)=O)n1 [Compound C10]	1850 nM
[2H]C(F)(F)Oc1cc(N2C3CC2CN(C)C3)ccc1Nc1ncc(Cl)c(Nc2ccccc2P(C)(C)=O)n1 [Compound C5]	321 nM
CCc1cc(Nc2nc(Nc3ccc4nccnc4c3P(C)(C)=O)c3ccccc3n2)c(OC)cc1N1C[C@H]2CN(C)C[C@H]2C1 [Compound C27]	204 nM

Stronger by IC50, values ahead:

IC50	SMILES
74.7 nM	[2H]C(F)(F)Oc1cc(N2CC3CCNC3C2)ccc1Nc1ncc(Cl)c(Nc2ccccc2P(C)(C)=O)n1 (centres unmarked) [Compound C12]
69.6 nM	[2H]C(F)(F)Oc1cc(N2C[C@H]3COC[C@H]3C2)ccc1Nc1ncc(Cl)c(Nc2ccccc2P(C)(C)=O)n1 [Compound C20]
22.3 nM	[2H]C(F)(F)Oc1cc(-n2cc3c(n2)CNC3)ccc1Nc1ncc(Cl)c(Nc2ccccc2P(C)(C)=O)n1 [Compound C7]
20.5 nM	COc1cc2c(cc1Nc1ncc(Cl)c(Nc3ccccc3P(C)(C)=O)n1)CCCN2CCN1CCN(C)CC1 [Compound C23]
19.5 nM	COc1cc2c(cc1Nc1ncc(Cl)c(Nc3ccccc3P(C)(C)=O)n1)CCCN2C(=O)CN1CCN(C)CC1 [Compound C24]
17.6 nM	[2H]C(F)(F)Oc1cc(N2CC3CCN(C)C3C2)ccc1Nc1ncc(Cl)c(Nc2ccccc2P(C)(C)=O)n1 (centres unmarked) [Compound C11]
16.6 nM	[2H]C(F)(F)Oc1cc(N2CC3CC(C2)N3)ccc1Nc1ncc(Cl)c(Nc2ccccc2P(C)(C)=O)n1 [Compound C2]
16.6 nM	[2H]C(F)(F)Oc1cc(N2C3CNCC2C3)ccc1Nc1ncc(Cl)c(Nc2ccccc2P(C)(C)=O)n1 [Compound C13]
13.7 nM	[2H]C(F)(F)Oc1cc(-n2cc3c(n2)CN(C)C3)ccc1Nc1ncc(Cl)c(Nc2ccccc2P(C)(C)=O)n1 [Compound C14]
12.4 nM	[2H]C(F)(F)Oc1cc(N2C[C@H]3CN(C)C[C@H]3C2)ccc1Nc1ncc(Cl)c(Nc2ccccc2P(C)(C)=O)n1 [Compound C1]
0.3 nM	CCc1cc(Nc2ncc(Br)c(Nc3ccc4nccnc4c3P(C)(C)=O)n2)c(OC)cc1N1C[C@H]2CN(C)C[C@H]2C1 [Compound C22]

Reference: patent publication US20230026840A1, “COMPOUND USED AS EGFR KINASE INHIBITOR AND USE THEREOF” (TYK MEDICINES, INC., priority 2019, published 2023)
